Data published in patent US20120009613A1, “PHARMACEUTICAL COMPOSITION FOR MODULATING THE ACTIVITY OF A NOVEL TRIGLYCERIDE HYDROLASE” (Karl-Franzens-Universitat Graz, priority 2004, published 2012).

Assays:
Assay type in all cases: biochemical
ATGL = target: T1, ATGL (Mus musculus, UniProt Q8BJ56); assay: TG hydrolase activity assay, cytosolic fractions of HepG2 cells infected with adenovirus coding for His-tagged ATGL, radiolabeled triolein substrate
T1 construct: a recombinant adenovirus encoding the His-tagged full length mouse ATGL cDNA was constructed; expressed in transfected cells; host or cells: HepG2 cells infected with recombinant adenovirus; cytosolic fraction
T1 sequence (Q8BJ56 1-486): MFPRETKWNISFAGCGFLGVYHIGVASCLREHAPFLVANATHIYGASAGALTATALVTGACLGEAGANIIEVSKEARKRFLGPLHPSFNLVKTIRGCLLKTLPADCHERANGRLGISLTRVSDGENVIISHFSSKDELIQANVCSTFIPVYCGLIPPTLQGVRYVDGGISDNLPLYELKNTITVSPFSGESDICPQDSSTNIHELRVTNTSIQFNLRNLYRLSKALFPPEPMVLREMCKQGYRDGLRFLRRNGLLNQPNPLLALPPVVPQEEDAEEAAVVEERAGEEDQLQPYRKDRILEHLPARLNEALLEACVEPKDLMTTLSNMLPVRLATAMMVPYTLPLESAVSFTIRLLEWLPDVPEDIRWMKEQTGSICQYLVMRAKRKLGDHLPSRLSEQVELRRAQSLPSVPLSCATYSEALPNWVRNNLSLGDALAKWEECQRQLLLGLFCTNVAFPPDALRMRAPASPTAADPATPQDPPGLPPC
Procedure: (§1) Neutral TG lipase activity was measured with triolein as substrate containing [9,10-3H(N)]-triolein (NEN Life Science Products) as radioactive tracer. The substrate for TG lipase activity was prepared by sonication (Virsonic 475) exactly as describeded by Holm et al. (30). Cells were disrupted on ice in lysis buffer (0.25 M sucrose, 1 mM EDTA, 1 mM dithiothreitol, 20 μg/ml leupeptin, 2 μg/ml antipain, 1 μg/ml pepstatin, pH 7) by sonication (Virsonic 475). The cytosolic infranatants were obtained after centrifugation at […], at 4° C. for 60 min. The reaction was performed in a water bath at 37° C. for 60 min with 0.1 ml substrate and 0.1 ml infranatant. The reaction was terminated by adding 3.25 ml of methanol/chloroform/heptane (10:9:7) and 1 ml of 0.1 M potassium carbonate, 0.1 M boric acid, pH 10.5. After centrifugation (800 g, 20 min) the radioactivity in 1 ml of the upper phase was determined by liquid scintillation counting.
A recombinant adenovirus coding for His-tagged ATGL or HSL was used to infect HepG2 cells as described above. For activity assays, the cytosolic fractions of the cells were incubated with a substrate containing radiolabeled triolein in the absence (control) or in the presence of 50 μg/ml orlistat. It can be seen from FIG. 4 that addition of orlistat decreased in ATGL activity by 98%. […]

HSL = target: T2, HSL (Mus musculus, UniProt P54310); assay: TG hydrolase activity assay, cytosolic fractions of HepG2 cells infected with adenovirus coding for His-tagged HSL, radiolabeled triolein substrate; conditions: 1M KCl vs absence (control), FIG. 5
T2 construct: His-tag; expressed in transfected cells; host or cells: HepG2 cells infected with recombinant adenovirus; cytosolic fraction
T2 sequence (P54310 1-759): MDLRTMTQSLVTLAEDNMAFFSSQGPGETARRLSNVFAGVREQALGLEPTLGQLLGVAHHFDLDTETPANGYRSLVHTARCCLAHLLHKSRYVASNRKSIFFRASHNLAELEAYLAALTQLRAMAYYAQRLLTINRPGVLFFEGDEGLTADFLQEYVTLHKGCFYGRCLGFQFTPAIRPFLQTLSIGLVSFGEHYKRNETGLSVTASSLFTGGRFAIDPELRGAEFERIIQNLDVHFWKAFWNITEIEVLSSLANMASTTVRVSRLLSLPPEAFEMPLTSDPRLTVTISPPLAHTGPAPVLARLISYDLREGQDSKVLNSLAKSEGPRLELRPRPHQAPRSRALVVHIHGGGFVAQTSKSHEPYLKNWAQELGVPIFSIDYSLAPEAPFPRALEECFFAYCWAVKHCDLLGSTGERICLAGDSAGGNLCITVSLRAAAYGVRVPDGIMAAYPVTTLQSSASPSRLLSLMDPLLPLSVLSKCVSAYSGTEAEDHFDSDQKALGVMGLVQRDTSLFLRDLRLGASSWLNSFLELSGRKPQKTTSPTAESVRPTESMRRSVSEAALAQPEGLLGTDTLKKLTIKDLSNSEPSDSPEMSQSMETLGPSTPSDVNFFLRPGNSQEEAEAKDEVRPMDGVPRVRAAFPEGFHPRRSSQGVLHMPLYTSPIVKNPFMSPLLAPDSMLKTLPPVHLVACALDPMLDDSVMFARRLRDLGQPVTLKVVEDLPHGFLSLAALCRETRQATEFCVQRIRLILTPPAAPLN
Procedure: as §1
A recombinant adenovirus coding for His-tagged ATGL or HSL was used to infect HepG2 cells. The infection led to a 7- and 12-fold increase in TG hydrolase activity for HSL and ATGL, respectively, compared to LacZ-infected cells. For activity assays, the cytosolic fractions of the cells were incubated with a substrate containing radiolabeled triolein in the absence (control) or in the presence of the indicated salt concentrations.

human ATGL (hATGL) = target: T3, human ATGL (hATGL) (Homo sapiens, UniProt Q96AD5); assay: TGH activity assay of hATGL with hCGI-58 expressed in COS-7 cells; conditions: human proteins; dose-dependent; FIG. 6f
T3 construct: The PCR products, containing the complete open reading frame, were ligated; expressed in transfected cells; host or cells: COS-7, transient transfection; cytoplasmic extracts
T3 sequence (Q96AD5 2-504): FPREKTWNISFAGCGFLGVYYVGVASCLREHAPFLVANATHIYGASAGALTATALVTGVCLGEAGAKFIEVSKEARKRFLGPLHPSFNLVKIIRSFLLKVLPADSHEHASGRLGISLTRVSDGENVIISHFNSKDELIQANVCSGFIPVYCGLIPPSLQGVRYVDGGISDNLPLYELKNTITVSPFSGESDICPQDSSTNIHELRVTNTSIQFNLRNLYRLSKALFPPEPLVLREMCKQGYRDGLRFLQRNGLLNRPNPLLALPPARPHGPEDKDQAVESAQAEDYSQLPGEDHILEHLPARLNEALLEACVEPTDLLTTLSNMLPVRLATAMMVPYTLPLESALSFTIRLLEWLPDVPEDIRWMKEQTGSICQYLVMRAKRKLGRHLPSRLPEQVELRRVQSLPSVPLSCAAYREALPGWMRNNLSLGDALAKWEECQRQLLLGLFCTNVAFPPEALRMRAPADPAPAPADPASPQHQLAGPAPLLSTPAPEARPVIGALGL
T3 sequence (Q8WTS1 1-349 partner): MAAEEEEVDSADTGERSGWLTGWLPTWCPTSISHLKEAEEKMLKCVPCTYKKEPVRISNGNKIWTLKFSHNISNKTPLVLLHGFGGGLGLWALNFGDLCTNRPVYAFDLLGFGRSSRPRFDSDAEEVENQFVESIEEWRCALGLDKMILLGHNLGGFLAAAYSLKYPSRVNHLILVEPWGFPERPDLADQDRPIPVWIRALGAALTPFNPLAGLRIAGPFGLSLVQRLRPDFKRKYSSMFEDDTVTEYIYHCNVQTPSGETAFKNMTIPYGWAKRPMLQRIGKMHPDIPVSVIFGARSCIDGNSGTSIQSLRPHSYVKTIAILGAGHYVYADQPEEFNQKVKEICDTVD
Text: In comparison, transfection of cells with ATGL and HSL increased TGH activities 4- and 9-fold, respectively. In order to investigate whether the effect of CGI-58 is due to endogenous TGH activity of CGI-58 or if the protein affects the activity of other lipases, the extracts of CGI-58 and ATGL or HSL-expressing cells were mixed together and subjected to TGH activity determinations (FIG. 6c). […] The activation of ATGL by CGI-58 could also be monitored on the molecular level using the fluorescently labeled lipase-inhibitor NBD-snl TG. By mimicking a TG molecule, this inhibitor covalently binds to active lipases. […]
Expression ofrecombinant proteins in cultured cells for CGI-58 investigations—Monkey embryonic kidney cells (COS-7, ATCC CRL-1651) were maintained in Dulbecco's minimal essential medium (DMEM) (Gibco, Invitrogen life technologies, Carlsbad, Calif.) containing 10% fetal calf serum (FCS) (Sigma-Aldrich Chemie GmbH) and antibiotics at 37° C. in humidified air (89-91% saturation) and 5% C02. […] Cells were analyzed two days after transfection.
FIG. 6. […] (a) His-tagged proteins were detected in cytoplasmic extracts of transfected cells by Western blotting using a monoclonal anti-His antibody. (b) TGH activity of cytoplasmic extracts of transfected cells was determined using a radiolabeled triolein substrate. […] The molar ratio ATGL/CGI-58 was determined as described in (d).

CCCCCCCCCCC[C@@H](C[C@@H]1OC(=O)[C@H]1CCCCCC)OC(=O)[C@H](CC(C)C)NC=O [orlistat]
decrease in ATGL activity (ATGL; 50 μg/ml orlistat vs absence (control), FIG. 4): 98%

[Cl-].[K+] [KCl, potassium chloride]
change in ATGL activity (stimulated) (ATGL; 1M KCl vs absence (control), FIG. 5): +84% | change in HSL activity (HSL): −68%

B1: hCGI-58: human CGI-58 expressed in COS-7 cells (protein, UniProt Q8WTS1 2-349, looked up)
1-acylglycerol-3-phosphate …: AAEEEEVDSADTGERSGWLTGWLPTWCPTSISHLKEAEEKMLKCVPCTYKKEPVRISNGNKIWTLKFSHNISNKTPLVLLHGFGGGLGLWALNFGDLCTNRPVYAFDLLGFGRSSRPRFDSDAEEVENQFVESIEEWRCALGLDKMILLGHNLGGFLAAAYSLKYPSRVNHLILVEPWGFPERPDLADQDRPIPVWIRALGAALTPFNPLAGLRIAGPFGLSLVQRLRPDFKRKYSSMFEDDTVTEYIYHCNVQTPSGETAFKNMTIPYGWAKRPMLQRIGKMHPDIPVSVIFGARSCIDGNSGTSIQSLRPHSYVKTIAILGAGHYVYADQPEEFNQKVKEICDTVD
magnitude of the maximal effect on ATGL activation (human ATGL (hATGL)): 6 fold
